# Entries after “also recorded” stand apart in the source; their conditions may differ.
# B1: DsRed: bright red fluorescent protein from coral (Discosoma spp.) (protein, UniProt Q9U6Y8 1-225, looked up)
# Red fluorescent protein …: MRSSKNVIKEFMRFKVRMEGTVNGHEFEIEGEGEGRPYEGHNTVKLKVTKGGPLPFAWDILSPQFQYGSKVYVKHPADIPDYKKLSFPEGFKWERVMNFEDGGVVTVTQDSSLQDGCFIYKVKFIGVNFPSDGPVMQKKTMGWEASTERLYPRDGVLKGEIHKALKLKDGGHYLVEFKSIYMAKKPVQLPGYYYVDSKLDITSHNEDYTIVEQYERTEGRHHLFL
# B2: sensor of SEQ ID NO: 62: aptamer 13-2 fused via modified stem A to an ATP-binding aptamer, used with DMHBI (nucleic acid)
# chain: CUAUUUCUGGAGGGGCGCUACUGUGUGGGAAGAAACUGUGGCACUUCGGUGCCAGCGUAUGGGUGGUUGGGUGCGGUCGGAGAUAGCUCGAGCAAUGC
# modifications: listed as RNA, further chemistry not given here
# Tests used:
# [1] = Dissociation constant of aptamer-DMHBI complexes by fluorescence titration; assay type: binding
# Source text: The first step in characterizing the interaction between fluorescence-inducing aptamers of DMHBI was to determine their binding affinities. Because binding of the RNA to DMHBI results in fluorescence, the dissociation constant (Kd) was obtained by titrating increasing amounts of DMHBI to a solution of the aptamer. To correct for any increases in DMHBI background fluorescence, measurements of DMHBI alone at the same concentrations were taken and subtracted from the binding data. These measurements were then used to extrapolate RNA-fluorophore dissociation constants. DMHBI bound to both 3-6 and 13-2 with roughly equal dissociation constants of 500 nM (FIG. 5A).
# aptamer 13-2 = assay: Quantum yield, extinction coefficient and brightness of DMHBI alone and with aptamer 13-2; assay type: physicochemical
# Description: Lucifer Yellow and Cascade Yellow, two fluorophores with known quantum yields, were used as standards and the relative slope changes in the curve depicting absorbance vs. total fluorescence were compared. Values were calculated for DMHBI alone and DMHBI with aptamer 13-2 to identify the underlying reason for fluorescence increase. […] Quantum yield, however, increased enormously from 0.0006 for DMHBI alone to 0.08 for the aptamer-DMHBI complex—an over 100-fold increase. Total brightness, measured as the product of extinction coefficient and quantum yield, went from 0.008 to 1.23 (150-fold). […] More importantly, the fold-increases in both quantum yield and brightness are more than sufficient for detection of the aptamer-fluorophore complex.
# [2] = Fluorescence of free fluorophore (ethanol glass, glycerol viscosity); assay type: physicochemical
# Source text: In GFP, the chromophore is held inside the protein β-barrel structure and rigidified by direct interactions with over a dozen amino acid residues (FIG. 1C). This inflexible positioning of the chromophore by the protein is the reason for its large fluorescent quantum yield. Similarly, the synthetic GFP chromophores 4-hydroxybenzilidene-1,2-dimethyl-imidazol-5-one (“HBDI”) is capable of bright fluorescence only when rigidified by solidified solvents (Niwa et al., “Chemical Nature of the Light Emitter of the Aequorea Green Fluorescent Protein,” Proc. Nat'l Acad. Sci. USA 93:13617-13622 (1996), which is hereby incorporated by reference in its entirety). […] As an initial experiment DMHBI was first dissolved in ethanol and frozen in liquid nitrogen to create an ethanol glass matrix.
# To more precisely determine the effect of immobilization on DMHBI fluorescence, 10 μM DMHBI in aqueous buffer was prepared and its fluorescence spectrum was measured in increasing concentrations of glycerol. Because glycerol is known to affect the viscosity of aqueous solutions in a predictable manner, the effect of increasing viscosity on DMHBI fluorescence can be readily measured. An increase in fluorescence intensity with increasing concentrations of glycerol was observed (FIG. 2B).
# This is in agreement with previously reported data of the fluorescence spectrum of synthetic GFP chromophore, which is incapable of the excited-state proton transfer reaction that is responsible for green emission spectra found in the GFP protein. […] The reason for this is that the phenolic moiety of the chromophore remains protonated at neutral pH and in the context of the original protein. Deprotonation to the phenolate results in an excitation maxima at ˜475 nm.
# Additionally, DFHBI was nonfluorescent when administered to HEK 293 cells, proving its utility for methods involving live cells.
# HEK 293 cells = assay: Non-specific fluorescence of dyes in HEK 293 cells; assay type: cell-based; conditions: for non-specific fluorescence in cells: 10 μM, epifluorescent microscope
# Description: Previous studies to utilize conditionally fluorescent RNA binding dyes had focused on triphenylmethane scaffold dyes such as malachite green. However, these studies were halted by the discovery that many of these conditionally fluorescent dyes could interact with cellular components causing the cells to nonspecifically fluoresce. To determine whether the fluorophores of the present invention would be nonspecifically fluorescent in cells, HEK 293 cells were incubated with 10 μM DMHBI and visualized using an epifluorescent microscope.
# [3] = Phenolic pKa and phenol/phenolate absorbance of fluorophores; assay type: physicochemical; conditions: for pKa: phenolic proton of free fluorophore
# Description: The pKa of DFHBI was calculated using the presence of the distinct phenol and phenolate absorbance peaks. […] This dramatic reduction in […] would ensure that a majority of fluorophore molecules would now be in the phenolate form at physiological pH.
# [4] = cited from earlier work; for emission maxima: literature values
# [5] = Fluorescence of aptamer-DFHBI complexes; assay type: biochemical; conditions: unchanged between unbound and bound fluorophore
# Source text: The addition of the fluoro groups appeared to cause a slight blue shift in the fluorescence with excitation and emission maxima at 460 nm and 500 nm, respectively (FIG. 12A). […] Thus, further characterization was only carried out on these two brightest clones. […] This increased brightness derived mainly from an increase in the quantum yield from 0.08 for DMHBI-RNA complexes to over 0.6 for DFHBI-RNA complexes. The extinction coefficient for DFHBI remained unchanged between unbound and bound fluorophore: 26,000 M^−1cm^−1.
# Equimolar solutions of 24-1-DFHBI complex and eGFP were prepared to measure their relative fluorescence intensity. […] Mg^2+ ion requirement, on the other hand, is much greater for 24-1 and 24-2 than for 13-2 (FIG. 12D). Both 24-1 and 24-2 are optimally fluorescent at 25 mM MgCl2 with only a subtle decrease when the concentration is dropped to 5 mM (the concentration used for SELEX). However, dropping MgCl2 concentration from 5 mM to a more physiological concentration of 0.5 mM results in a 50% drop in fluorescence for both aptamers. Further decreasing the MgCl2 concentration completely abolishes 24-1 fluorescence at ˜0.01 mM, while 24-2 levels out at ˜45% intensity at 0.01 mM MgCl2.
# [6] = ATP-dependent fluorescent sensor from aptamer 13-2 with DMHBI; assay type: biochemical
# Source text: FIGS. 22A-B illustrate the design of a fluorescent ATP sensor using aptamer 13-2. FIG. 22A illustrates how aptamer 13-2 (nt 4-60 of SEQ ID NO: 3, structure from mFOLD, left) was modified by fusing it to a previously-described ATP-aptamer (see structure on right). An unstable stem was fused from the ATP aptamer to 13-2 at the stem A entry point, generating the sensor of SEQ ID NO: 62. FIG. 22B confirms that the fused aptamer construct can be used as an ATP-dependent fluorescent sensor. In the absence of ATP, there is minimal fluorescence, even in the presence of DMHBI (lower curve). However, after addition of 1 mM ATP, the fluorescence increases nearly 30-fold (upper curve).
# The mutagenesis studies described in Example 8 confirmed that stem loop A of aptamer 13-2 (see FIG. 22A) could be mutated as long as a stem-forming sequence was retained. Using the same approach identified in Example 17 (for aptamer 24-1), stem-loop A was used as an entry point for introducing an ATP aptamer along with stem destabilization.
# [7] = highly viscous solutions, pH 7.4
molecule,measurement,setting,value
"COc1cc(/C=C2\N=C(C)N(C)C2=O)cc(OC)c1O [DMHBI, 4-(4-hydroxy-3,5-dimethoxybenzylidene)-1,2-dimethyl-imidazol-5-one]",Kd,"[1]; aptamer not named, read-out: Kd of the complex (RNA-bound DMHBI)",500 nM
same,dissociation τ1/2,[1]; inferred from Kd assuming diffusion-limited association rates,< 0.1 s
same,quantum yield,aptamer 13-2; DMHBI alone,0.0006
same,total brightness (product of extinction coefficient and quantum yield),aptamer 13-2; DMHBI alone,0.008
same,molar extinction coefficient,aptamer 13-2; DMHBI bound by aptamer 13-2,"15,358 M^−1cm^−1"
same,quantum yield,aptamer 13-2; aptamer-DMHBI complex,0.08
same,total brightness (product of extinction coefficient and quantum yield),aptamer 13-2; aptamer-DMHBI complex,1.23
same,increase in quantum yield,aptamer 13-2; complex vs DMHBI alone,over 100 fold
same,increase in total brightness,aptamer 13-2; complex vs DMHBI alone,150 fold
same,molar extinction coefficient,aptamer 13-2; unbound DMHBI,"13,164 M^−1cm^−1"
same,fluorescence in glycerol,"[2]; 10 μM in aqueous buffer, 20% glycerol",very limited fluorescence
same,fluorescence in ethanol glass,"[2]; frozen in liquid nitrogen, 77° K",dramatic fluorescent enhancement; also recorded: brilliantly fluorescent
same,emission peak,[2]; [7],460 nm
same,excitation peak,[2]; [7],400 nm
same,fluorescence in ethanol,[2]; room temperature,nonfluorescent; also recorded: non-fluorescent
same,non-specific fluorescence in cells,HEK 293 cells,no increase in background fluorescence; also recorded: No non-specific fluorescence
same,fraction deprotonated,[3]; pH 8,~50%
"4-hydroxybenzylidene-1-methyl-2-penta-1,3-dien-1-yl-imidazolinone [reference compound]",emission maxima,[4],523 nm
"CN(C)c1ccc(C(=C2C=CC(=[N+](C)C)C=C2)c2ccccc2)cc1 [malachite green, reference compound]",non-specific fluorescence in cells,HEK 293 cells,intensely fluorescent; also recorded: cells turn fluorescent
"CC1=N/C(=C\c2cc(F)c(O)c(F)c2)C(=O)N1C [DFHBI, 4-(3,5-difluoro-4-hydroxybenzylidene)-1,2-dimethyl-imidazol-5-one]",fluorescence in ethanol glass and at high glycerol concentrations,[2],robustly fluorescent
same,fluorescence in non-viscous solutions,[2],negligible fluorescence
same,fluorescence when administered to cells,HEK 293 cells,nonfluorescent
same,"absorbance maximum, phenol",[3],363 nm
same,"absorbance maximum, phenolate",[3],420 nm
same,pKa,[3],~6
same,extinction coefficient,[5],"26,000 M^−1cm^−1"
"CC1=N/C(=C\c2ccccc2O)C(=O)N1C [o-HBDI, 4-(2-hydroxybenzylidene)-1,2-dimethyl-imidazol-5-one]",pKa,[3],~10
same,emission maxima,[4],605 nm
B1,excitation maxima,[4]; literature value,558 nm
same,emission maxima,[4],583 nm
B2,fluorescence increase after addition of ATP,"[6]; 1 mM ATP, DMHBI present",~30 fold
same,molar fluorescence intensity relative to 13-2 parent aptamer,[6]; ATP-bound,~20%

# From patent US10316000B2, “Coupled recognition/detection system for in vivo and in vitro use” (Cornell University, priority 2009, dated 2019)
